Legend:
[1] = test system: retinoid-responsive elements (RARE); assay: RA reporter assay, F9 RARE-lacZ reporter cells; type: cell-based; details: 10 nM; control 45
Excerpt: More typical of retinoic acid is its contribution to cell differentiation during vertebrate embryonic development by interacting with nuclear receptors, which bind to specific retinoid-responsive elements (RARE) within the promoters of subordinate genes, activating their transcription. To verify that retinoate 2 also binds to RARE, we used a reporter assay with F9 teratocarcinoma cells featuring a RARE located within the cis-acting regulatory sequences of the human retinoic acid receptor alpha gene and immediately upstream of the E. coli lacZ genes, which thus acquire retinoid responsivity. LacZ expression in cells treated with various concentrations of 2 was then quantitated by densitometric analysis of β-galactosidase activity visualized by X-Gal staining.
The F9 embryonal carcinoma cell line, stably transfected with the 1.8 kb promoter sequence of RARb2 coupled to the lacZ gene, was used to measure active retinoids. The assay is appropriate for detection of all-trans RA but is able to detect other retinoid isomers as well. The F9 reporter cells were maintained in 10% FCS containing DMEM in the presence of 400 ug/mL G418. A day before the assay, F9 cell were seeded onto 24-well plates (100,000 cell/well). The cells were than treated with various concentrations of 2. […]

[2] = test system: NE-4C neural stem cells; assay: Neuronal differentiation of NE-4C neural stem cells (β-tubulin III staining); type: cell-based, mouse; details: 10 nM, β-tubulin III staining
Procedure: NE-4C cells and their differentiated progeny neurons can be immunohistochemically distinguished by the presence of β-tubulin III only in the latter (Figure 3).
Astroglia cells grown on poly-L-lysine-coated glass cover slips were fixed with 4% paraformaldehyde in PBS for 20 min at room temperature and then permeabilized with Triton X-100 (0.1% v/v in PBS; 5 min). Nonspecific antibodies were blocked by incubation with 3% FBS in PBS (room temperature, 1 h). α-GFAP antibody (rabbit, DAKO) was used in a dilution of 1:2000 and was visualized by anti-rabbit IgG Alexa 594 (1:1000). DAPI (4′,6-diamidino-2-phenylindole) was used for nuclei staining. Fluorescence images were captured manually on a Zeiss Axiovert 200 M microscope fitted with 20- to 60-fold zoom and a Zeiss AxioCam MRm digital camera. Further applied antibodies were tubulin III (Sigma T5076), used at a dilution of 1:1000, and Annexin V. Cy3.18 (Sigma A4963).

## CC1=C(/C=C/C(C)=C/C=C/C(C)=C/C(=O)O)C(C)(C)CCC1 [all-trans retinoic acid, reference compound]
[1]
  gray value (densitometric analysis of β-galactosidase activity): 175
[2]
  differentiation of NE-4C stem cells to neurons: differentiate to neurons

Reference: PMC9408991, “Antitumor Effects of a New Retinoate of the Fungal Cytotoxin Illudin M in Brain Tumor Models” (International Journal of Molecular Sciences, 2022)
